In ChEMBL document CHEMBL1201862, “PubChem BioAssay data set” (2004):
Active and inactive are the calls of the source.

Columns and labels:
[1] = biological target: 72 kDa type IV collagenase (Homo sapiens, UniProt P08253); assay: Dose Response validation of uHTS RPN11 inhibitor hits using a MMP-2 Fluorescence assay.; assay type: functional
Prothrombin [2] = biological target: Prothrombin (Bos taurus, UniProt P00735); assay: thrombin inhibition, dose response, biochemical, fluorescence polarization, uHTS hits (AID 602369); assay type: functional
[3] = biological target: 26S proteasome non-ATPase regulatory subunit 14 (Homo sapiens, UniProt O00487); assay: inhibition of proteasome subunit RPN11 – biochemical, fluorescence polarization, uHTS hits, confirmation (AID 602368); assay type: functional
26S proteasome non-ATPase regulatory subunit 14, sequence (O00487 whole entry): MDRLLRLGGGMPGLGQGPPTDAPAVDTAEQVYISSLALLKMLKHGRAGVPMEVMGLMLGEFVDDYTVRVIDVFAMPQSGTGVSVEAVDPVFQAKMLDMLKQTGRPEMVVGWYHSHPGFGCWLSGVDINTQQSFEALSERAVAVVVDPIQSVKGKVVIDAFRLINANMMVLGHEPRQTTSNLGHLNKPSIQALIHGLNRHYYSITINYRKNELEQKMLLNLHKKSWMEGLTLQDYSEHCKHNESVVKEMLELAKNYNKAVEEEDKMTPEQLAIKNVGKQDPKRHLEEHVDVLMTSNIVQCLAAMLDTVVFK

[4] = biological target: T1, Zinc finger protein mex-5 (Caenorhabditis elegans, UniProt Q9XUB2); assay: MEX-5/TCR-2 RNA interaction inhibitors, dose response, biochemical, C. elegans, fluorescence polarization (AID 1960)
T1 sequence (Q9XUB2 whole entry): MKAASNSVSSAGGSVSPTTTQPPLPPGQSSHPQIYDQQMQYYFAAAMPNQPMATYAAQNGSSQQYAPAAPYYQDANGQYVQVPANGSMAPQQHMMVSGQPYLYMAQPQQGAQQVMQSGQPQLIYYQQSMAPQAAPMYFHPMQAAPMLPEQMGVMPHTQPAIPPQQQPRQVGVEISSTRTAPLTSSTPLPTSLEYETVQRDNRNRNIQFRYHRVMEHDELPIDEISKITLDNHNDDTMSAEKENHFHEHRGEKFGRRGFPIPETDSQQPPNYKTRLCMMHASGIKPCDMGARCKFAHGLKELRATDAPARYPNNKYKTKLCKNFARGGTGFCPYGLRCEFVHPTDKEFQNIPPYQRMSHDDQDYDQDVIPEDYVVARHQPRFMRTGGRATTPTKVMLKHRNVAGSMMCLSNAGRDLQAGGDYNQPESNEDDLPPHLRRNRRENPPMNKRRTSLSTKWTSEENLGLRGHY

[5] = biological target: T2, RNA-binding protein pos-1 (Caenorhabditis elegans, UniProt G5EF15); assay: inhibitors of POS-1/mex-3 RNA binding, dose response, biochemical, fluorescence polarization (AID 1964);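 further: purified POS-1 fused to maltose binding protein made in E. coli; potency of compounds blocking POS-1 binding to fluorescent RNA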
T2 sequence (G5EF15 whole entry): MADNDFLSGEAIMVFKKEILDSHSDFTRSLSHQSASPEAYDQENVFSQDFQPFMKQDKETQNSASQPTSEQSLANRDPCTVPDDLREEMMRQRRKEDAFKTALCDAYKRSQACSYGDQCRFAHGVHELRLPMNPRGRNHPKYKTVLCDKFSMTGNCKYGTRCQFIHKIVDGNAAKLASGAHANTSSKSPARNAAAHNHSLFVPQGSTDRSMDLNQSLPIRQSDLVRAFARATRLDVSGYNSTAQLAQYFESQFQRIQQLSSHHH

Aspartyl aminopeptidase = biological target: T3, Aspartyl aminopeptidase (Plasmodium falciparum 3D7, UniProt Q8I2J3)
T3 sequence (Q8I2J3 whole entry): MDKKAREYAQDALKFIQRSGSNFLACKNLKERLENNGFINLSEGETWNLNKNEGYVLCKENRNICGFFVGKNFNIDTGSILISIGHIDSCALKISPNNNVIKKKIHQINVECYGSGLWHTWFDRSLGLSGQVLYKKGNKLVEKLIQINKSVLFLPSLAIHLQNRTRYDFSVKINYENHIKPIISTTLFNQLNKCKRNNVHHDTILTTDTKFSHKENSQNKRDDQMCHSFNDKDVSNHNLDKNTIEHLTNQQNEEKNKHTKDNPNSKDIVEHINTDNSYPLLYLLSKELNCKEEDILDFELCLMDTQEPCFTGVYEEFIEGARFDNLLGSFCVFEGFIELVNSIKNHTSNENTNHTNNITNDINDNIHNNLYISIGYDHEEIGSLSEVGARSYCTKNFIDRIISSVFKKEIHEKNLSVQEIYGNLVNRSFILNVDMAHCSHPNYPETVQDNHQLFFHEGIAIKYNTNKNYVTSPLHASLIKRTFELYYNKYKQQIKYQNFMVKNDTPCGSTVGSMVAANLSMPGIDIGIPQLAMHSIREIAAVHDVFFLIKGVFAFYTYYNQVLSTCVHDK

Procathepsin L = Procathepsin L (Homo sapiens, UniProt P07711)
Procathepsin L, sequence (P07711 whole entry): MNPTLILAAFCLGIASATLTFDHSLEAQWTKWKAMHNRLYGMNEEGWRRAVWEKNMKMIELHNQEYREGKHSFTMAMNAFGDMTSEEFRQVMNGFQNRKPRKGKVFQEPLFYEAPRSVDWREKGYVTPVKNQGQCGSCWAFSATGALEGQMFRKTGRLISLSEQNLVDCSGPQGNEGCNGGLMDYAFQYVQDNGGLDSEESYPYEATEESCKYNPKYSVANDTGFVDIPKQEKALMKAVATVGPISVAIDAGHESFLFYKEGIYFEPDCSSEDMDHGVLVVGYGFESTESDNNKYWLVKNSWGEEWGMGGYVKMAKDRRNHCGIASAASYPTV

[6] = inhibitors of Vif binding to APOBEC3G peptide, primary screen, biochemical, TR-FRET, GST-Vif 1-94, biotin-A3G peptide, dose response retest (AID 1117319); assay type: functional;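 further: TR-FRET signal of purified GST-Vif binding a biotinylated A3G peptide; inhibitors lower the FRET signal by blocking Vif and A3G binding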
Streptococcus = assay: Group A Streptococcus viability loss, dose response, counter-screen for streptokinase expression inhibitor project, luminescence, BacTiterGlo (AID 1915); assay type: functional, organism-based;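 further: potency for reduction of bacterial viability or growth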
Prothrombin [7] = biological target: Prothrombin (Homo sapiens, UniProt P00734); assay: Thrombin 1536 HTS Dose Response Confirmation. [Related pubchem assays: 1046 (Thrombin 1536 HTS; hits were confirmed in this assay)]; assay type: functional
[8] = system: Streptococcus sp. 'group A'; assay: growth inhibition of control SK(-) GAS strain, dose response, counter-screen for streptokinase expression inhibitor project, luminescence, kanamycin, BacTiterGlo, confirmation (AID 1900); assay type: functional, organism-based
Streptokinase A = biological target: T4, Streptokinase A (Streptococcus pyogenes serotype M1, UniProt P10520); assay: S. pyogenes streptokinase expression inhibitors, potency, dose response, plasminogen activation absorbance, OD405 (AID 1914); assay type: functional, Streptococcus pyogenes M1 GAS;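 further: secreted streptokinase activity via plasminogen activation per viability signal from cell pellet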
T4 sequence (P10520 whole entry): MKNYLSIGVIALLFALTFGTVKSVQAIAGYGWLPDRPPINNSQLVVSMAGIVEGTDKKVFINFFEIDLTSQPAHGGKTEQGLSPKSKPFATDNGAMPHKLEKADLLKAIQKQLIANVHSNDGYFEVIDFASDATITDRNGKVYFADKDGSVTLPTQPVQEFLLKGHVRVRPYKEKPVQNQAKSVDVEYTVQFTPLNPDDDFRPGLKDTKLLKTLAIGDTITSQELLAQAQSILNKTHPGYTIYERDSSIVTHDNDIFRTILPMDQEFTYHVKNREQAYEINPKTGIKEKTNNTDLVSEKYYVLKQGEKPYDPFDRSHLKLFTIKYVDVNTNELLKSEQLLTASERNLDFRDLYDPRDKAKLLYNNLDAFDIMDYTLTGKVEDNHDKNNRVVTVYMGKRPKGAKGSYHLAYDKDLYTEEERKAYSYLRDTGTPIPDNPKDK

[9] = cytotoxicity in KRAS-transformed pancreatic duct cells, primary screen, cell-based, fluorescence, HTS (AID 431); assay type: functional; conditions: Homo sapiens;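 further: cell line used: HPDE-C7K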
[10] = cytotoxicity in HPDE-C7 cells, cell-based, fluorescence, HTS (AID 430); assay type: functional; conditions: Homo sapiens
[11] = biological target: T5, High affinity choline transporter 1 (Homo sapiens, UniProt Q9GZV3); assay: CHT inhibitors, dose response, cell-based, 5-point CRC, membrane potential dye (AID 504840); assay type: functional
T5 sequence (Q9GZV3 whole entry): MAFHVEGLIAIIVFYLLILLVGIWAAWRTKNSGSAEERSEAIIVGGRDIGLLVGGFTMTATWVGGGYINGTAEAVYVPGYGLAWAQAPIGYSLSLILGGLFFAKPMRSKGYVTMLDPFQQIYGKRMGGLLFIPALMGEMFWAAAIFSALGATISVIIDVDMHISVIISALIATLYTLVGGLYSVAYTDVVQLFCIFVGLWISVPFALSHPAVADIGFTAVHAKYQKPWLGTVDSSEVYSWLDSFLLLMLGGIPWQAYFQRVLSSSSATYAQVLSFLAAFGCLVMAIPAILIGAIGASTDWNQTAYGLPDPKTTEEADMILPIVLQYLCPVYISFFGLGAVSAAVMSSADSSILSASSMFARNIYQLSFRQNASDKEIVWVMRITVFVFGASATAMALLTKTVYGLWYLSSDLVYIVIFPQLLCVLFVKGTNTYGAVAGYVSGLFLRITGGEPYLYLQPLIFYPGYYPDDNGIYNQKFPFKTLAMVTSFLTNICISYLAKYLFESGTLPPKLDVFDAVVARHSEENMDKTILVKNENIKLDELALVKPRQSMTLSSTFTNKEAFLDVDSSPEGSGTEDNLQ

[12] = inhibitors of PGC1a acetylation in cells, dose response, cell-based, cherry-picked samples (AID 720514); assay type: functional;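 further: potency may reflect raised or lowered acetylation signal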
[13] = biological target: T6, Carboxy-terminal domain RNA polymerase II polypeptide A small phosphatase 1 (Homo sapiens, UniProt Q9GZU7); assay: inhibitors of CTDSP1, concentration-response testing, biochemical assay, absorbance-based, actives from ultra-high-throughput screening (AID 540297); assay type: functional
T6 sequence (Q9GZU7 whole entry): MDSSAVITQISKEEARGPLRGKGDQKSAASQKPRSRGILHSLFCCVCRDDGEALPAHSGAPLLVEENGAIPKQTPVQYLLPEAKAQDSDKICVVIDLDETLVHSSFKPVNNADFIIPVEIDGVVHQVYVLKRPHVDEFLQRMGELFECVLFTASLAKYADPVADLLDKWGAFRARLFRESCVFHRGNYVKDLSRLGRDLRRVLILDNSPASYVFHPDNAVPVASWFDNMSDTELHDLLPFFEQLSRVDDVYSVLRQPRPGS

72 kDa type IV collagenase, sequence (P08253 whole entry): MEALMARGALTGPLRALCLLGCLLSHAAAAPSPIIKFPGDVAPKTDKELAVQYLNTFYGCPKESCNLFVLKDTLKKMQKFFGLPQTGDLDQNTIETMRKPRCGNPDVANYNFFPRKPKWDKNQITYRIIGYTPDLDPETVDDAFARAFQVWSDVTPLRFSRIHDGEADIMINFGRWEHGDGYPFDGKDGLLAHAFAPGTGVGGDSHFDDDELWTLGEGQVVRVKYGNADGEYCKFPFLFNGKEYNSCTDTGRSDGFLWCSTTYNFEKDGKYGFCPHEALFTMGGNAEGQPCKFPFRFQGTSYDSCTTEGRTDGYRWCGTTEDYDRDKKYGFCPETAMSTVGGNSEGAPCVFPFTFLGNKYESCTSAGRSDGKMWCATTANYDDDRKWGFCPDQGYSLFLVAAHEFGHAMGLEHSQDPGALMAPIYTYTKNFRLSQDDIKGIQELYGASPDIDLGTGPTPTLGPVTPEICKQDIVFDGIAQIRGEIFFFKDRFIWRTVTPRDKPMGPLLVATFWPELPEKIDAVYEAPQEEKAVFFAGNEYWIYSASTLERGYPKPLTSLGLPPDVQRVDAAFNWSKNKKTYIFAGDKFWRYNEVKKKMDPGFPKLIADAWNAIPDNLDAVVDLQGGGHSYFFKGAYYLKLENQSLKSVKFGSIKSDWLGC

## Cc1c(OCC(N)=O)ccc2c(-c3ccccc3)cc(=O)oc12
[1]
  IC50: 57.2 µM (active)
Prothrombin [2]
  IC50: 78.1 µM (active)
[3]
  IC50: 57.7 µM (active)

## Cc1ccc(/C=C(\C#N)C(=O)Nc2c(C)cccc2C)s1
[1]
  IC50: > 100 µM (inactive)
[4]
  EC50: > 300 µM (not active)
Prothrombin [2]
  IC50: 23.5 µM (active)
[3]
  IC50: 13.5 µM (active)
[5]
  EC50: > 300 µM (not active)

## Cc1nc2ccccn2c1C(=O)NNC(=O)Nc1ccccc1
Aspartyl aminopeptidase
  IC50: 1.05 µM (active)
Procathepsin L
  IC50: > 59.6 µM (not active)

## NCCOc1ccccc1Cc1ccccc1
[6]
  IC50: > 100 µM (active)

## COC(=O)Nc1sc2c(c1C(=O)NCc1ccco1)CCCC2
[6]
  IC50: > 100 µM (active)

## O=C(Cn1cn[n+](CC(=O)c2ccc(Cl)cc2Cl)c1)c1ccc([N+](=O)[O-])cc1
Streptococcus
  EC50: > 150 µM (not active)
Prothrombin [7]
  IC50: 1.7 µM (active)
[8]
  EC50: 11.3 µM (active)
Streptokinase A
  EC50: 21.4 µM (active)

## Cc1cc(C)nc(Nc2ccccc2Br)n1
Prothrombin [7]
  IC50: > 50 µM (not active)

## CCOCCCn1c(C)nc2c(c1=O)c1nc3ccccc3nc1n2CCC1=CCCCC1
[9]
  EC50: > 20 µM (not active)
[10]
  EC50: > 20 µM (not active)

## O=C(CCN1C(=O)c2ccccc2C1=O)NCc1ccco1
[6]
  IC50: > 100 µM (active)

## Cc1cc(C)nc(SCc2cc(=O)c(OC(=O)c3ccc(Br)o3)co2)n1
[11]
  IC50: 14.5 µM (active)

## Cc1nnc(NNS(=O)(=O)c2ccc(Cl)cc2)[nH]c1=O
Aspartyl aminopeptidase
  IC50: 1.57 µM (active)
Procathepsin L
  IC50: > 59.6 µM (not active)

## O=C(c1cnn2cccnc12)N1CCN(Cc2ccc3c(c2)OCO3)CC1
[6]
  IC50: > 100 µM (active)

## C=CCNc1nc2ccccc2nc1NS(=O)(=O)c1ccc(Br)cc1
[11]
  IC50: 13.2 µM (active)

## COc1cccc(-n2c(Cc3cc(O)nc(O)n3)nnc2SCC(=O)NC2CCCC2)c1
[6]
  IC50: > 100 µM (active)

## COc1ccc(C(=O)N2C(=S)NC(=O)/C2=C\c2ccc(C)cc2)cc1
[1]
  IC50: 23.8 µM (active)
Prothrombin [2]
  IC50: 37.8 µM (active)
[3]
  IC50: 22.5 µM (active)

## COC(=O)c1ccccc1NC(=O)c1cc(-c2cccs2)on1
[9]
  EC50: > 20 µM (not active)
[10]
  EC50: > 20 µM (not active)

## COc1ccc(NC(C)(C)c2nnnn2-c2c(C)cccc2C)cc1
[11]
  IC50: 25.1 µM (active)

## Cc1c(NS(=O)(=O)c2ccc(Cl)c(C(=O)OCC(=O)NCc3ccco3)c2)c(=O)n(-c2ccccc2)n1C
Prothrombin [7]
  IC50: > 50 µM (not active)

## Cc1noc(C)c1CSc1nnc(-c2cccnc2)n1C1CCCCC1C (configuration not stated)
[12]
  AC50: 28.4 µM (active)

## CC1CN(C(=O)CCC(=O)NC(C)c2ccccc2)c2cc(Cl)ccc2O1 (configuration not stated)
[11]
  IC50: 15.1 µM (active)

## CN(CC(=O)Nc1ccc(Cl)cc1)C(=O)CCc1nc(O)c2c3c(sc2n1)CCCC3
[1]
  IC50: > 100 µM (inactive)
Prothrombin [2]
  IC50: 26.4 µM (active)
[3]
  IC50: 30.7 µM (active)

## CCc1ccc(S(=O)(=O)NC(CC(=O)O)c2ccccc2)cc1 (configuration not stated)
[9]
  EC50: > 20 µM (not active)
[10]
  EC50: > 20 µM (not active)

## COc1c(C)cc(C(=O)C2CCCN(S(=O)(=O)c3c(C)noc3C)C2)cc1C (configuration not stated)
Prothrombin [7]
  IC50: > 50 µM (not active)

## O=S(=O)(Nn1cnnc1)c1ccccc1
Aspartyl aminopeptidase
  IC50: 3.81 µM (active)
Procathepsin L
  IC50: > 59.6 µM (not active)

## Cc1ccccc1CCNCc1cc2cccc(C)c2nc1O
[11]
  IC50: 10 µM (active)

## O=C(Nc1ccc(-c2nc3ccccc3s2)c(O)c1)C1=COCCO1
[13]
  IC50: 3.39 µM (active)
[1]
  IC50: > 100 µM (inactive)
Prothrombin [2]
  IC50: 91.4 µM (active)
[3]
  IC50: 22.5 µM (active)

## CC(=O)Nc1ccc(S(=O)(=O)Nc2nnc(C(C)C)s2)cc1
[6]
  IC50: > 100 µM (active)

## CCOC(=O)c1ccc(/N=C/c2nc(-c3ccccc3)oc2OC(C)=O)cc1
Prothrombin [7]
  IC50: 0.526 µM (active)

## COc1cc(CN2C[C@@H]3N[C@H](C2)[C@@H]3c2ccc(-c3ccccc3C)cc2)cc(OC)c1
[12]
  AC50: 6.84 µM (active)

## C/C(=N/NC(=O)c1cc(Cl)ccc1O)C12CC3CC(CC(C3)C1)C2
[11]
  IC50: 8.58 µM (active)
